Experimental findings from US9938281B2 (Merck Sharp & Dohme Corp., priority 2012, dated 2018) are described below.

Structures are written as SMILES. Bounds are passed on as bounds.

Assay [1] addresses T1, PI3K-alpha (Homo sapiens, UniProt P42336).
T1 construct: purchased Upstate; Millipore 14-602
The assay can be described thus: HTRF PI3K biochemical assay, alpha isoform. The settings on record: ratio PI3K-alpha IC50 value / PI3K-delta IC50 value.

Assay [2] deals with T2, PI3K-delta (Homo sapiens, UniProt O00329).
T2 construct: purchased Upstate; Millipore 14-604
As to the kind of experiment: HTRF PI3K biochemical assay, delta isoform. The settings on record: form screened (neutral or TFA salt) given, read-out: PI3Kdelta IC50. (In general: Time-resolved FRET reads energy transfer from a long-lived donor to a nearby acceptor.)
Excerpt: HTRF PI3K Biochemical Assay to Measure Intrinsic Potency of Compound Inhibitors
This assay was developed and further optimized from a kit produced by Upstate (Millipore catalog #33-047) and has been configured for HTS and SAR screening. Briefly, this procedure exploits the exquisite specificity and high affinity binding of enzyme reaction substrate phosphatidyl(3,4,5)triphosphate (PIP3) to the GRP1 pleckstrin homology (PH) domain to generate the signal. In the absence of PIP3, an HTRF (Homogeneous Time-Resolved Fluorescence energy transfer) complex is formed consisting of europium (Eu)-labeled anti-GST, GSTtagged GRP1-PH domain, biotin-PIP3 and streptavidin conjugated APC. The native PIP3 produced by PI3-Kinase activity disrupts in a competitive manner the biotin-PIP3 from the PH domain, resulting in the loss of energy transfer (HTRF complex) and a decrease in the signal. The format of this assay is the same for all 4 isoforms of PI3K; the differences lie in the concentration of enzyme used to achieve robust assay window. The alpha, beta, and delta assays are run at 0.5, 1, and 0.3 nM enzymes and the gamma assay is run at 5 nM enzyme. The ATP concentration is 100 uM in the alpha, beta, and delta assays and 50 uM ATP in the gamma assay. All reactions are run at 5 uM PIP2.
Compounds are serially diluted (3-fold in 100% DMSO) across a 384-well polypropylene source plated from column 3 to column 12 and column 13 to column 22, to yield 10 concentration dose response for each test compound. Columns 1, 2, 23 and 24 contain either only DMSO or pharmacological known control inhibitor.
The PI3-Kinase biochemical assay was optimized using the HTRF kit provided by Upstate (Millipore). The assay kit contains six reagents: 1) 4× Reaction Buffer; 2) native PIP2 (substrate); 3) Stop (EDTA); 4) Detection Mix A (Streptavidin-APC); 5) Detection Mix B (Eu-labeled Anti-GST plus GST-tagged PH-domain); 6) Detection Mix C.
PI3Kinase Reaction Buffer is prepared by dilution the stock 1:4 with de-ionized water. […] Enzyme addition and compound pre-incubation are initiated by the addition of 1.25 ul of PI3K (at twice its final concentration) in the 1× reaction buffer to all wells using a BioRaptor. Plates are incubated at room temperature for 15 minutes. Reactions are initiated by addition of 1.25 ul of 2× substrate solution (PIP2 and ATP in 1× reaction buffer) using BioRaptor. Plates are incubated in humidified chamber at room temperature for one hour. Reactions are quenched by addition of 0.625 uL of stop solution to all wells using the BioRaptor. The quenched reactions are then processed to detect product formation by adding 0.625 uL of Detection Solution to all wells using the BioRaptor (Detection mix C, Detection Mix A, and Detection Mix B combined together in an 18:1:1 ratio prepared 2 hours prior to use).
The loss of the HTRF signal is due to the displacement of biotinylated-PIP3 from the PH domain by the PI3K-dependent conversion of PIP2 to PIP3. This loss of signal is nonlinear with respect to both increasing product and time. This non-linear detection will impact accuracy of IC50 calculations; therefore, there is a need for a correction factor to obtain more accurate IC50 values. This correction is derived from a PIP3 standard curve run in a separate assay plate. All data were calculated using the ratio of acceptor (APC) to donor (Europium) fluorescence in each well of the assay plate. […] An IC50 was then calculated fitting the % inhibition data to the equation: % inhibition=min+(Max−min)/1+([inhibitor]/IC50)^n) where min is the % inhibition with inhibitor, max is the signal in DMSO control, and n is the Hill slope.

T2 sequence (O00329 whole entry): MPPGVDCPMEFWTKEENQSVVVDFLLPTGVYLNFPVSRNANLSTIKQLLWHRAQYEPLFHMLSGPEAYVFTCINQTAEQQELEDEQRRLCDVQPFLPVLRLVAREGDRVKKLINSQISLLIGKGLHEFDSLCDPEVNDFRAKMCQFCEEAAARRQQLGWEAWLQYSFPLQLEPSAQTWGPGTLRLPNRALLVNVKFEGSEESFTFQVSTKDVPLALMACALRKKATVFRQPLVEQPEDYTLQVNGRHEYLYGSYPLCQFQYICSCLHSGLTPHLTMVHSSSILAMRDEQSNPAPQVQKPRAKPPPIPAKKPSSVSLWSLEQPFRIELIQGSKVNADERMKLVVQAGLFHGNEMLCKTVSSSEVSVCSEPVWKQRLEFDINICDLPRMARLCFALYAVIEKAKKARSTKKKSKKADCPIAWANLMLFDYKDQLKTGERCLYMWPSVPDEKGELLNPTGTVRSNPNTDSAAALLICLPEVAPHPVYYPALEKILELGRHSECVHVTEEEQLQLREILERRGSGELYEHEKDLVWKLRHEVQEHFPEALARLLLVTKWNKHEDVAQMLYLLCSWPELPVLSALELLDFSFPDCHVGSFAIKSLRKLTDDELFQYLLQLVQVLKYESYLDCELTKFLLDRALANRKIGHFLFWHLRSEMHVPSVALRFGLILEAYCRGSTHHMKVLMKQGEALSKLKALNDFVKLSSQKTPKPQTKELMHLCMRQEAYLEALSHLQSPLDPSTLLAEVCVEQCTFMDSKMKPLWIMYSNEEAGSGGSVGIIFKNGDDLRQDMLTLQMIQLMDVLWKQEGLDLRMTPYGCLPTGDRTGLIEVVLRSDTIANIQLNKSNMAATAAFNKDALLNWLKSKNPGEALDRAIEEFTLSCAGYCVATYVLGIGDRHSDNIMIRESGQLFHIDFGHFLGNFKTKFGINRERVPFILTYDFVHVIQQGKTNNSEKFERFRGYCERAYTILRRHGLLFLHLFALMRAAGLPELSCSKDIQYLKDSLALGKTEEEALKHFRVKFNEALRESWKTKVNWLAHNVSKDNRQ
T2 sequence (P27986 whole entry partner): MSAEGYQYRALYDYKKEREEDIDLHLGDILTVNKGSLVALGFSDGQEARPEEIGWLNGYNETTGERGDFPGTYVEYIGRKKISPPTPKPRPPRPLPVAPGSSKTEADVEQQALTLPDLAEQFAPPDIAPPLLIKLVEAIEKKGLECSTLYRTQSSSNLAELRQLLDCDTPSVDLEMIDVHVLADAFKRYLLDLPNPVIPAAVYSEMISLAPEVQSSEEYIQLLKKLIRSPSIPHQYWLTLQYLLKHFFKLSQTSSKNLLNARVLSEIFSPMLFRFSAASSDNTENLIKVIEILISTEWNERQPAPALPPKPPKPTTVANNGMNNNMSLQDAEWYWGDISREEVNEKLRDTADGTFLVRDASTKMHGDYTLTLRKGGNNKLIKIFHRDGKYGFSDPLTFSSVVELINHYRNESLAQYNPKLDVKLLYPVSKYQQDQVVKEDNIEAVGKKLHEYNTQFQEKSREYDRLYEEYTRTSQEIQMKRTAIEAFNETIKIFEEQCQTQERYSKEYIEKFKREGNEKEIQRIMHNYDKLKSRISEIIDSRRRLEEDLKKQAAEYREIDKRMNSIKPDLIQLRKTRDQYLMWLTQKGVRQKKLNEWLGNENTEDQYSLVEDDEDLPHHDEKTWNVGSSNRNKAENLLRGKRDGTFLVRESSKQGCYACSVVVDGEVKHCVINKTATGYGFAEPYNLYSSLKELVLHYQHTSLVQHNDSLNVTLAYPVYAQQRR
T1 sequence (P42336 whole entry): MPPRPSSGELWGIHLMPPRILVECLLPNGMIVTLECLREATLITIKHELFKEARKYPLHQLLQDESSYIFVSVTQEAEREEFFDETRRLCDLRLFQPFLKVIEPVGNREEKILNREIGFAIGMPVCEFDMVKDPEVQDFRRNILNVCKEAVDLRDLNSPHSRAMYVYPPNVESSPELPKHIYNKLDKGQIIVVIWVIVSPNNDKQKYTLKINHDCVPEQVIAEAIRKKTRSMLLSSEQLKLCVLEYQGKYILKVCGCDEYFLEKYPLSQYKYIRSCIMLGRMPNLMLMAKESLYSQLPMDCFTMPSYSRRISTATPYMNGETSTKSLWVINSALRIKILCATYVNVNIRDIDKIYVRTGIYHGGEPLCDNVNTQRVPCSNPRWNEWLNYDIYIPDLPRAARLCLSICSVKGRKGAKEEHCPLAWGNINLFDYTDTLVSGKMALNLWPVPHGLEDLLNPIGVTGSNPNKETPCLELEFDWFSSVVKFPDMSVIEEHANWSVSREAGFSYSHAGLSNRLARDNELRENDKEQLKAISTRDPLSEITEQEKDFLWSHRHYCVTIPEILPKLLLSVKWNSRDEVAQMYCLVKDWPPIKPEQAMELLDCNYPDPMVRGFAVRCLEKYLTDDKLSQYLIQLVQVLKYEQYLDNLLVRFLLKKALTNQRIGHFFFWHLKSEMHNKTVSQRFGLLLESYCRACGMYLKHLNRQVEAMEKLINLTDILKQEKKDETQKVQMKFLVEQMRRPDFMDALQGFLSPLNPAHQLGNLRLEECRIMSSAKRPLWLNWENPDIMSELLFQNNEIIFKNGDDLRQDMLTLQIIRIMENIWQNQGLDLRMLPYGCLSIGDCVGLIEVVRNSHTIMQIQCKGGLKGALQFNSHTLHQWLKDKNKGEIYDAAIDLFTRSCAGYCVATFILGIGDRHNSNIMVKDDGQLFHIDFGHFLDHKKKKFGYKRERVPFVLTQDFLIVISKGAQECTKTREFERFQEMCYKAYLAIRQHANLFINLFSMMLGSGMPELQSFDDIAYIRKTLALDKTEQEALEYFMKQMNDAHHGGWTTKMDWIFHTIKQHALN
T1 sequence (P27986 whole entry partner): as the sequence (P27986 whole entry partner) above

`CCn1c(C(=O)NCC(F)(F)F)nc2c(N[C@H]3CCN(C(=O)C4CC4)C3)ncnc21` [Compound 6-3, 6-{[(3S)-1-(cyclopropylcarbonyl)pyrrolidin-3-yl]amino}-9-ethyl-N-(2,2,2-trifluoroethyl)-9H-purine-8-carboxamide]: the “Selectivity versus PI3Kalpha” value in assay [1] is more than 10. Moreover, in assay [2], the IC50 worked out at 6.7 nM.
The like results for `CCn1c(-c2cnc(C)nc2)nc2c(N[C@H]3C[C@H](C(=O)OC)N(C(=O)OC(C)(C)C)C3)ncnc21` [Compound 1-17, 1-tert-butyl 2-methyl (2R,4S)-4-{[9-ethyl-8-(2-methylpyrimidin-5-yl)-9H-purin-6-yl]amino}pyrrolidine-1,2-dicarboxylate] were, in that order, more than 10 and 8.8 nM.
The like results for `CCn1c(-c2cnc(C)nc2)nc2c(N[C@H]3CCN(C(=O)C4CC4CF)C3)ncnc21` (mixture of isomers) [Compound 2-37, ((S)-3-((9-ethyl-8-(2-methylpyrimidin-5-yl)-9H-purin-6-yl)amino)pyrrolidin-1-yl)((1S,2S and 1R,2R)-2-(fluoromethyl)cyclopropyl) methanone] were, in that order, more than 10 and less than 1 nM.
Turning to `CCn1c(-c2cnc(C)nc2)nc2c(N[C@H]3CCN(C(=O)OC(C)C)C3)ncnc21` [Compound 13-5, 1-methylethyl (3S)-3-{[9-ethyl-8-(2-methylpyrimidin-5-yl)-9H-purin-6-yl]amino}pyrrolidine-1-carboxylate], the “Selectivity versus PI3Kalpha” value in assay [1] is more than 10. Also, the IC50 in assay [2] turned out to be 6.2 nM.
For the molecule `CCC(=O)N1CC[C@H](Nc2ncnc3c2nc(-c2ccc4[nH]ncc4c2)n3C)C1` [Compound 3-3, (S)-1-(3-((8-(1H-indazol-5-yl)-9-methyl-9H-purin-6-yl)amino)pyrrolidin-1-yl)propan-1-one], the “Selectivity versus PI3Kalpha” value in assay [1] is more than 10. Besides, in assay [2], the IC50 came out at 4.3 nM.
As to `CCn1c(-c2cnc(C)nc2)nc2c(NC3CN(C(=O)C4CC4)CC3F)ncnc21` (racemic) [Compound 3-26, N-[(3R,4S and 3S,4R)-1-(cyclopropylcarbonyl)-4-fluoropyrrolidin-3-yl]-9-ethyl-8-(2-methylpyrimidin-5-yl)-9H-purin-6-amine], in assay [1], the “Selectivity versus PI3Kalpha” value is on record as more than 10. For the same molecule, the IC50 in assay [2] is 34 nM.
The like results for `CCn1c(-c2cnc(C)nc2)nc2c(N[C@H]3CCN(C(=O)NCC(F)(F)F)C3)ncnc21` [Compound 12-8, (3S)-3-{[9-ethyl-8-(2-methylpyrimidin-5-yl)-9H-purin-6-yl]amino}-N-(2,2,2-trifluoroethyl)pyrrolidine-1-carboxamide] were, in that order, more than 10 and 9.7 nM.
The like results for `CCn1ncc(-c2nc3c(NC4CN(C(=O)OC(C)(C)C)C4)ncnc3n2C)c1C` [Compound 1-10, tert-butyl 3-((8-(1-ethyl-5-methyl-1H-pyrazol-4-yl)-9-methyl-9H-purin-6-yl)amino)azetidine-1-carboxylate] were, in that order, more than 10 and 15 nM.
The like results for `CCn1c(-c2cnc(C)nc2)nc2c(NC3CN(C(=O)OC(C)(C)C)CC3(F)F)ncnc21` (racemic) [Compound 1-21, (R and S)-tert-butyl 4-{[9-ethyl-8-(2-methylpyrimidin-5-yl)-9H-purin-6-yl]amino}-3,3-difluoropyrrolidine-1-carboxylate] were, in that order, more than 10 and 9.4 nM.
Turning to `CCn1ncc(-c2nc3c(N[C@H]4CCN(C(=O)C5CCOCC5)C4)ncnc3n2C)c1C` [Compound 2-4, 8-(1-ethyl-5-methyl-1H-pyrazol-4-yl)-9-methyl-N-[(3S)-1-(tetrahydro-2H-pyran-4-ylcarbonyl)pyrrolidin-3-yl]-9H-purin-6-amine], the “Selectivity versus PI3Kalpha” value in assay [1] is recorded as more than 10. For the same molecule, the IC50 in assay [2] was less than 1 nM.
The like results for `CCn1c(-c2cnc(C)nc2)nc2c(N[C@H]3CCN(C(=O)[C@@H]4C[C@H]4C)C3)ncnc21` [Compound 2-92, 9-ethyl-N-[(3S)-1-{[(1R,2R)-2-methylcyclopropyl]carbonyl}pyrrolidin-3-yl]-8-(2-methylpyrimidin-5-yl)-9H-purin-6-amine] were, in that order, more than 10 and less than 1 nM.
The like results for `CCn1c(-c2cnc(C)nc2)nc2c(NC3CN(C(=O)C4CC4)CC34CC4)ncnc21` (racemic) [Compound 3-17, (R and S)-N-[5-(cyclopropylcarbonyl)-5-azaspiro[2.4]hept-7-yl]-9-ethyl-8-(2-methylpyrimidin-5-yl)-9H-purin-6-amine] were, in that order, more than 10 and less than 1 nM.
For `CCn1c(C(F)F)nc2c(N[C@H]3CCN(C(=O)N4CC(OC)C4)C3)ncnc21` [Compound 7-28, 8-(difluoromethyl)-9-ethyl-N-{(3S)-1-[(3-methoxyazetidin-1-yl)carbonyl]pyrrolidin-3-yl}-9H-purin-6-amine], the “Selectivity versus PI3Kalpha” value in assay [1] is given as more than 10. For the same molecule, the IC50 in assay [2] turned out to be 3.2 nM.
With `CCn1ncc(-c2nc3c(N[C@H]4CCN(C(=O)C5CCOC(C)(C)C5)C4)ncnc3n2C)c1C` (stereo partly drawn) [Compound 2-6, N-{(3S)-1-[(2,2-dimethyltetrahydro-2H-pyran-4-yl)carbonyl]pyrrolidin-3-yl}-8-(1-ethyl-5-methyl-1H-pyrazol-4-yl)-9-methyl-9H-purin-6-amine], the “Selectivity versus PI3Kalpha” value in assay [1] was more than 10. Besides, in assay [2], the IC50 is 1.6 nM.
The like results for `CCC(=O)N1CC[C@H](Nc2ncnc3c2nc(-c2cnn(CC)c2C)n3CC(F)F)C1` [Compound 9-4, 9-(2,2-difluoroethyl)-8-(1-ethyl-5-methyl-1H-pyrazol-4-yl)-N-[(3S)-1-propanoylpyrrolidin-3-yl]-9H-purin-6-amine] were, in that order, more than 10 and less than 1 nM.
The like results for `CCn1c(C(C)C)nc2c(N[C@H]3CCN(C(=O)C4CC4)C3)ncnc21` [Compound 7-5, N-[(3S)-1-(cyclopropylcarbonyl)pyrrolidin-3-yl]-9-ethyl-8-(1-methylethyl)-9H-purin-6-amine] were, in that order, more than 10 and 130 nM.
The like results for `CCn1c(C(F)F)nc2c(N[C@H]3CCN(C(=O)[C@H]4CCCN4C)C3)ncnc21` [Compound 7-19, 8-(difluoromethyl)-9-ethyl-N-[(3S)-1-(1-methyl-D-prolyl)pyrrolidin-3-yl]-9H-purin-6-amine] were, in that order, more than 10 and 380 nM.
For `CCn1c(-c2cnc(C)nc2)nc2c(N[C@H]3CCN(C(=O)C4CC(C)(C)C4)C3)ncnc21` [Compound 2-59, N-{(3S)-1-[(3,3-dimethylcyclobutyl)carbonyl]pyrrolidin-3-yl}-9-ethyl-8-(2-methylpyrimidin-5-yl)-9H-purin-6-amine], in assay [1], the “Selectivity versus PI3Kalpha” value is more than 10. Moreover, the IC50 in assay [2] is less than 1 nM.
Take `CCn1c(-c2cnc(C)nc2)nc2c(N[C@H]3CCN(C(=O)N4CCCCC4)C3)ncnc21` [Compound 12-5, 9-ethyl-8-(2-methylpyrimidin-5-yl)-N-[(3S)-1-(piperidin-1-ylcarbonyl)pyrrolidin-3-yl]-9H-purin-6-amine]: in assay [1], the “Selectivity versus PI3Kalpha” value is reported as more than 10. Further, in assay [2], the IC50 stood at 1.2 nM.
On the same counts, the results for `CCn1c(-c2cncc(-c3ccccc3)c2)nc2c(N[C@H]3CCN(C(=O)C4CC4)C3)ncnc21` [Compound 3-37, N-[(3S)-1-(cyclopropylcarbonyl)pyrrolidin-3-yl]-9-ethyl-8-(5-phenylpyridin-3-yl)-9H-purin-6-amine] are more than 10 and 5.4 nM.
On the same counts, the results for `CCn1c(-c2cnc(C)nc2)nc2c(N[C@H]3C[C@@H](C(N)=O)N(C(=O)C4CC4)C3)ncnc21` [Compound 15-10, (4S)-1-(cyclopropylcarbonyl)-4-{[9-ethyl-8-(2-methylpyrimidin-5-yl)-9H-purin-6-yl]amino}-L-prolinamide] are more than 10 and 60 nM.
On the same counts, the results for `CCC(=O)N1CCC[C@H](Nc2ncnc3c2nc(-c2cnc(C)nc2)n3CC)C1` [Compound 2-27, 9-ethyl-8-(2-methylpyrimidin-5-yl)-N-[(3S)-1-propanoylpiperidin-3-yl]-9H-purin-6-amine] are more than 10 and 28 nM.
As to `CCn1c(-c2cnc(C)nc2)nc2c(N[C@H]3CCN(C(=O)C4(N)CC4)C3)ncnc21` [Compound 2-84, N-{(3S)-1-[(1-aminocyclopropyl)carbonyl]pyrrolidin-3-yl}-9-ethyl-8-(2-methylpyrimidin-5-yl)-9H-purin-6-amine], the “Selectivity versus PI3Kalpha” value in assay [1] was more than 10. In addition, the IC50 in assay [2] was found to be 20 nM.
The like results for `CCCCNC(=O)N1CC[C@H](Nc2ncnc3c2nc(-c2cnc(C)nc2)n3CC)C1` [Compound 12-23, (3S)-N-butyl-3-{[9-ethyl-8-(2-methylpyrimidin-5-yl)-9H-purin-6-yl]amino}pyrrolidine-1-carboxamide] were, in that order, more than 10 and 3.5 nM.
The like results for `CCn1c(-c2cnc(C)nc2)nc2c(N[C@H]3CCN(C(=O)N4CC[C@H](OC)C4)C3)ncnc21` [Compound 12-14] were, in that order, more than 10 and 1.6 nM.
The like results for `CCn1c(-c2cnc(C)nc2)nc2c(NC3CCC(=O)N(CC4CC4)C3)ncnc21` (single isomer, unassigned) [Compound 14-6, 5(S or R)-1-(cyclopropylmethyl)-5-{[9-ethyl-8-(2-methylpyrimidin-5-yl)-9H-purin-6-yl]amino}piperidin-2-one] were, in that order, more than 10 and 4.3 nM.
On to `CCn1c(-c2cnc(C)nc2)nc2c(N[C@H]3CC[C@@H](C(=O)OC)C3)ncnc21` [Compound 5-3, methyl (1R,3S)-3-{[9-ethyl-8-(2-methylpyrimidin-5-yl)-9H-purin-6-yl]amino}cyclopentanecarboxyl-ate], for which the “Selectivity versus PI3Kalpha” value in assay [1] was more than 10. Besides, the IC50 in assay [2] was determined as 32 nM.
